The values that follow come from paper PMC10176470, “Engaging a Non-catalytic Cysteine Residue Drives Potent and Selective Inhibition of Caspase-6” (Journal of the American Chemical Society, 2023).

Holding throughout (format): cell-based
Test [1] concerns the target proteins of HEK293T cells transiently overexpressing caspase-6 (Homo sapiens, UniProt P08133). To be noted: exp_ref Probe; protein ANXA6 (P08133); analysis C6.
Test [2] deals with T1, proteins of HEK293T cells transiently overexpressing caspase-6 (Homo sapiens, UniProt P14324).
T1 sequence (P14324 1-419): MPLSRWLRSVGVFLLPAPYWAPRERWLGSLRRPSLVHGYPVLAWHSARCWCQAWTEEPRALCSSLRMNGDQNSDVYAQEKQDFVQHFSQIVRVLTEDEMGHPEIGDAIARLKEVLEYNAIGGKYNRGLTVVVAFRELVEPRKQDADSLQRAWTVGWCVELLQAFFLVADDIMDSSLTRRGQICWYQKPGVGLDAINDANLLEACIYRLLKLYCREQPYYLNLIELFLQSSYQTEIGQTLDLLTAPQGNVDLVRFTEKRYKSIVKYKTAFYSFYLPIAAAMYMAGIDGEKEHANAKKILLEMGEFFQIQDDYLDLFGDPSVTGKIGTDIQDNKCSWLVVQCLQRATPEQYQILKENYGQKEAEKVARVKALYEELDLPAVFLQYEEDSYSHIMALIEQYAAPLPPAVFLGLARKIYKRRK
The conditions noted are these: Probe; protein FDPS P14324.

Test [3] concerns the target proteins of HEK293T cells transiently overexpressing caspase-6 (Homo sapiens, UniProt Q9NVX2). To be noted: Probe; protein NLE1 Q9NVX2.
For test [4], the target named is proteins of HEK293T cells transiently overexpressing caspase-6 (Homo sapiens, UniProt Q96K37). To be noted: protein SLC35E1 (Q96K37); exp_ref Probe; analysis C6.
In test [5] the target is proteins of HEK293T cells transiently overexpressing caspase-6 (Homo sapiens, UniProt P35232). The conditions noted are these: Probe; protein PHB P35232.
The target of test [6] is proteins of HEK293T cells transiently overexpressing caspase-6 (Homo sapiens, UniProt Q9NTK5). The conditions noted are these: protein OLA1 (Q9NTK5), analysis C6.
Test [7] concerns the target proteins of HEK293T cells transiently overexpressing caspase-6 (Homo sapiens, UniProt P13667). To be noted: Probe; protein PDIA4 P13667.
Test [8] concerns the target proteins of HEK293T cells transiently overexpressing caspase-6 (Homo sapiens, UniProt Q96AG4). The conditions noted are these: protein LRRC59 (Q96AG4); exp_ref Probe; analysis C6.
Test [9] has as its target proteins of HEK293T cells transiently overexpressing caspase-6 (Homo sapiens, UniProt Q15365). The conditions noted are these: protein PCBP1 (Q15365); exp_ref Probe; analysis C6.
Test [10] concerns the target proteins of HEK293T cells transiently overexpressing caspase-6 (Homo sapiens, UniProt Q86YZ3). To be noted: Probe; protein HRNR Q86YZ3.
For test [11], the target named is proteins of HEK293T cells transiently overexpressing caspase-6 (Homo sapiens, UniProt P61313).
For test [12], the target named is proteins of HEK293T cells transiently overexpressing caspase-6 (Homo sapiens, UniProt Q14980). The conditions noted are these: exp_ref Probe; protein NUMA1 (Q14980); analysis C6.
The target of test [13] is T2, proteins of HEK293T cells transiently overexpressing caspase-6 (Homo sapiens, UniProt P46977).
T2 sequence (P46977 1-705): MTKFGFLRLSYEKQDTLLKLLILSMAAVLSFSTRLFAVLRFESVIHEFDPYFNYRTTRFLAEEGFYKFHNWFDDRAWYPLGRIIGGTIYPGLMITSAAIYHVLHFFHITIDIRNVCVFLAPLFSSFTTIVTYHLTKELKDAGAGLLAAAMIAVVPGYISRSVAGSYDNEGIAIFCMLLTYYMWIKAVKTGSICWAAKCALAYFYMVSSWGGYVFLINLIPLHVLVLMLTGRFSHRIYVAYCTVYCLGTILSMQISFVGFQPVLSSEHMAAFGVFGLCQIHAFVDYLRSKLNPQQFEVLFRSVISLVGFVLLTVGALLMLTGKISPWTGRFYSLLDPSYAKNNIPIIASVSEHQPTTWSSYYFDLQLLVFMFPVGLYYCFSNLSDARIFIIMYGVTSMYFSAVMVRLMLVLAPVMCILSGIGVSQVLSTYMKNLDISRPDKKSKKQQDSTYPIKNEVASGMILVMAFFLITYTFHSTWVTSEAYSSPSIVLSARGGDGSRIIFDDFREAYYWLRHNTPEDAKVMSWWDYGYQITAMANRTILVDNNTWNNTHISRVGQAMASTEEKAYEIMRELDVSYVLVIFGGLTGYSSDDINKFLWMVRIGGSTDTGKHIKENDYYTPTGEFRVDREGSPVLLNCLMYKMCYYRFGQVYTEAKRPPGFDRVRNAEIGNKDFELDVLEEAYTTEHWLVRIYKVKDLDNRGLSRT
To be noted: protein STT3A (P46977).

In test [14] the target is proteins of HEK293T cells transiently overexpressing caspase-6 (Homo sapiens, UniProt Q9NUU7). To be noted: protein DDX19A (Q9NUU7); exp_ref Probe; analysis C6.
In test [15] the target is proteins of HEK293T cells transiently overexpressing caspase-6 (Homo sapiens, UniProt P54578). To be noted: Probe; protein USP14 P54578.
Test [16] addresses proteins of HEK293T cells transiently overexpressing caspase-6 (Homo sapiens, UniProt P42704). The conditions noted are these: exp_ref Probe; protein LRPPRC (P42704); analysis C6.
Test [17] has as its target proteins of HEK293T cells transiently overexpressing caspase-6 (Homo sapiens, UniProt P38919). To be noted: exp_ref Probe; protein EIF4A3 (P38919); analysis C6.
The target in test [18] is proteins of HEK293T cells transiently overexpressing caspase-6 (Homo sapiens, UniProt P23246). To be noted: exp_ref Probe; protein SFPQ (P23246); analysis C6.

Chain of proteins of HEK293T cells transiently overexpressing caspase-6 (Homo sapiens, UniProt Q14980) (Q14980 whole entry): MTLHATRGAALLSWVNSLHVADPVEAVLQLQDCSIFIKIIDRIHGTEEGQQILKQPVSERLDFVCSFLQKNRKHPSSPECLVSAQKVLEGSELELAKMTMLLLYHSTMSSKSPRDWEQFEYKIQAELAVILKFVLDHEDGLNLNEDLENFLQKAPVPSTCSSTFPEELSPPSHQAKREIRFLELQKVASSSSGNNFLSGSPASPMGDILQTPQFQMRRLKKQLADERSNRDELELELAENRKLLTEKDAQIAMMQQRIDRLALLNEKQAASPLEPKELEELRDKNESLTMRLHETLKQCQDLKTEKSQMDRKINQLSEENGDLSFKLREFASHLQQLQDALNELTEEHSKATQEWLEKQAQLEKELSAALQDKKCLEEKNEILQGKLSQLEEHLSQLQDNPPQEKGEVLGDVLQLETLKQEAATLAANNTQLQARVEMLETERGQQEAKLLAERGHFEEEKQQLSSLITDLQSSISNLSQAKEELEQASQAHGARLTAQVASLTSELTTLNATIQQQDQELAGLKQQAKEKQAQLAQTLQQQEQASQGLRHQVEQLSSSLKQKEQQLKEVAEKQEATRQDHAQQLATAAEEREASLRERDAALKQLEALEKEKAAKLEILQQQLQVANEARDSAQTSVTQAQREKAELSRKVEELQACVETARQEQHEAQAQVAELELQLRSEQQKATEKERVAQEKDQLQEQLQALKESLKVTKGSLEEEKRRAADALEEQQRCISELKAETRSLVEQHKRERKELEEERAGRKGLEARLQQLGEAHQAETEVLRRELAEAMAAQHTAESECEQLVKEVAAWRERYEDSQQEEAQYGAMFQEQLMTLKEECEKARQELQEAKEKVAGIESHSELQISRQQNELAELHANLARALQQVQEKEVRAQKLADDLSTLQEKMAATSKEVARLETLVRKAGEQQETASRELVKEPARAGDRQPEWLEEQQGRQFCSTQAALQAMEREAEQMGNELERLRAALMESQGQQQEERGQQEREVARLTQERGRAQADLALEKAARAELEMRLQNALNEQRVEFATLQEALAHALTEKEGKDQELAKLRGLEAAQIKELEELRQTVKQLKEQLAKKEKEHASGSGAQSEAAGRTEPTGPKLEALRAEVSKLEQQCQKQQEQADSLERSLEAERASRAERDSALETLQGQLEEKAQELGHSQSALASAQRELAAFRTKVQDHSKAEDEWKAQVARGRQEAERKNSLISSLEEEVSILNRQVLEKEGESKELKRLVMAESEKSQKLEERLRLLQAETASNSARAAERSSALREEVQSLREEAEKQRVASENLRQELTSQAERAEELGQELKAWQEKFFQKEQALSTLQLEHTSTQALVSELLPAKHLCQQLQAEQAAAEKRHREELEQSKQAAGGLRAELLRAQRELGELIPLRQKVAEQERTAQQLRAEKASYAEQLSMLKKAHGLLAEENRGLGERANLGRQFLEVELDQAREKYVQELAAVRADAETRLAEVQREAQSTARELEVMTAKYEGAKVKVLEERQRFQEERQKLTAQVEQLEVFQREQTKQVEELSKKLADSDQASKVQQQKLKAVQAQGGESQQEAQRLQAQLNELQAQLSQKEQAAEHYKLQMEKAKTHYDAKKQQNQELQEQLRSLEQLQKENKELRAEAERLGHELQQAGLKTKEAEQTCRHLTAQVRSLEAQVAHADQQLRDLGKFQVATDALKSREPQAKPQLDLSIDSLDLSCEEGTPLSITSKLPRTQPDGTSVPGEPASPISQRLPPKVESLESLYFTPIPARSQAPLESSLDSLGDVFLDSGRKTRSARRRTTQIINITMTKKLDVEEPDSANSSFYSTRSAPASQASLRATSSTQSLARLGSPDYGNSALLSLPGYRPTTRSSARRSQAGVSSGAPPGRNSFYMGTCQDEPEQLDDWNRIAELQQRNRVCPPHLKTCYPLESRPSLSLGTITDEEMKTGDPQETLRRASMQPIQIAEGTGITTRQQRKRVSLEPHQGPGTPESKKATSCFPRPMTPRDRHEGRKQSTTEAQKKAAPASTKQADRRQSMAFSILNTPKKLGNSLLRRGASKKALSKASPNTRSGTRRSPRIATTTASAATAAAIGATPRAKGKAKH
Chain of proteins of HEK293T cells transiently overexpressing caspase-6 (Homo sapiens, UniProt P35232) (P35232 whole entry): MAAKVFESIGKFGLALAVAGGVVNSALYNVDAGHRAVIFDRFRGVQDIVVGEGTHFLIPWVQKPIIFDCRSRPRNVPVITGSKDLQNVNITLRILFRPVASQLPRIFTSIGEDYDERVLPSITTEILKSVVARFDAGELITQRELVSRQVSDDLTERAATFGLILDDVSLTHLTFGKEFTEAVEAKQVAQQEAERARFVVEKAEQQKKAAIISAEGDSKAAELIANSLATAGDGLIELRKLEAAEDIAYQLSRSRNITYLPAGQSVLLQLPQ
Chain of proteins of HEK293T cells transiently overexpressing caspase-6 (Homo sapiens, UniProt Q15365) (Q15365 whole entry): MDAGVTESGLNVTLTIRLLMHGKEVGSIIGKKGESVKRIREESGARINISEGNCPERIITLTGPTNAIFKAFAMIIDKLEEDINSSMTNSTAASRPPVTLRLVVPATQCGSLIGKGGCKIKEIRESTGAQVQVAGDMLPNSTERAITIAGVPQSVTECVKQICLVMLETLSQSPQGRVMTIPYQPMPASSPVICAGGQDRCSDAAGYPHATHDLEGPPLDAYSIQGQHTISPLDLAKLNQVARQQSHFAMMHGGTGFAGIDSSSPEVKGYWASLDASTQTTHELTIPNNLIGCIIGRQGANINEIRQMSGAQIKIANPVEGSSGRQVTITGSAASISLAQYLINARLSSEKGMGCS
Chain of proteins of HEK293T cells transiently overexpressing caspase-6 (Homo sapiens, UniProt Q9NUU7) (Q9NUU7 whole entry): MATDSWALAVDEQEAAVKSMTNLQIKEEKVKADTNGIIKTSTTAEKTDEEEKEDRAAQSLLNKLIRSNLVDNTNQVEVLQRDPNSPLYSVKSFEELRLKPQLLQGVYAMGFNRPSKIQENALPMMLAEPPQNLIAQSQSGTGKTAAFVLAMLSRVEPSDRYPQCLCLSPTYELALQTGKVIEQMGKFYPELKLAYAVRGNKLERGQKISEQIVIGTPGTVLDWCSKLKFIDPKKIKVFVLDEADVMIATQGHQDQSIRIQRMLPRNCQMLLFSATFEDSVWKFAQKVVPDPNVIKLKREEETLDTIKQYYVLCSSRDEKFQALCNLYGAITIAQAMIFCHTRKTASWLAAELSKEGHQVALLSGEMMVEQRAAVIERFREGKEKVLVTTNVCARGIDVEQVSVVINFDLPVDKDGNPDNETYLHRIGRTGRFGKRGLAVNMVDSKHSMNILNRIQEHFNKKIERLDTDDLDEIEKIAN
Chain of proteins of HEK293T cells transiently overexpressing caspase-6 (Homo sapiens, UniProt P38919) (P38919 whole entry): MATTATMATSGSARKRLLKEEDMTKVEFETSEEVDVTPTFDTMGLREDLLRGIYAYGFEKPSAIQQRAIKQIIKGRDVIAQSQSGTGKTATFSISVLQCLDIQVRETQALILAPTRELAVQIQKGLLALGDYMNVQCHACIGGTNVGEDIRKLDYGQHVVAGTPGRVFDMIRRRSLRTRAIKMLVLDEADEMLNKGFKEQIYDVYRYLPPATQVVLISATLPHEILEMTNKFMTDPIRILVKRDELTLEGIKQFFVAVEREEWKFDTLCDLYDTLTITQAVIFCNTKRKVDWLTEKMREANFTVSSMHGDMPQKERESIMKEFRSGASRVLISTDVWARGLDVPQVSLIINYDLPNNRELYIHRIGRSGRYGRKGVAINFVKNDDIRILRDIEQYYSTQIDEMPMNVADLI
Chain of proteins of HEK293T cells transiently overexpressing caspase-6 (Homo sapiens, UniProt P08133) (P08133 whole entry): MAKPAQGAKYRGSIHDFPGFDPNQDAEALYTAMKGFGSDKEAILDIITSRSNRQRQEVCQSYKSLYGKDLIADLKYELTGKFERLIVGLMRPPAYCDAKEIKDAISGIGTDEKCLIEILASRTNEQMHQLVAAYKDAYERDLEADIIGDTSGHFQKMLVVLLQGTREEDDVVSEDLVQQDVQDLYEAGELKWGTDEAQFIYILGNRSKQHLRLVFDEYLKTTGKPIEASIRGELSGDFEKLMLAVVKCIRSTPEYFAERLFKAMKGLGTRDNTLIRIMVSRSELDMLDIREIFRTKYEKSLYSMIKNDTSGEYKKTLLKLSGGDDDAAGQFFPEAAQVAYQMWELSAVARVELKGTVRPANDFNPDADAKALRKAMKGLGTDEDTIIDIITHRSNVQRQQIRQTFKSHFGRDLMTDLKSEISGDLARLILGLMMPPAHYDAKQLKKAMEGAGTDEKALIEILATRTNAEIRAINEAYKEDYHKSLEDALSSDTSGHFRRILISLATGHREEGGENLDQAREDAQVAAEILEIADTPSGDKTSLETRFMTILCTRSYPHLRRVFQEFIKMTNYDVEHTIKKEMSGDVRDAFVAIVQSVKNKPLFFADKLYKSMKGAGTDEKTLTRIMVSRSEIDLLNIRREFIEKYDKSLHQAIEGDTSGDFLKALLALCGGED
Chain of proteins of HEK293T cells transiently overexpressing caspase-6 (Homo sapiens, UniProt Q96K37) (Q96K37 whole entry): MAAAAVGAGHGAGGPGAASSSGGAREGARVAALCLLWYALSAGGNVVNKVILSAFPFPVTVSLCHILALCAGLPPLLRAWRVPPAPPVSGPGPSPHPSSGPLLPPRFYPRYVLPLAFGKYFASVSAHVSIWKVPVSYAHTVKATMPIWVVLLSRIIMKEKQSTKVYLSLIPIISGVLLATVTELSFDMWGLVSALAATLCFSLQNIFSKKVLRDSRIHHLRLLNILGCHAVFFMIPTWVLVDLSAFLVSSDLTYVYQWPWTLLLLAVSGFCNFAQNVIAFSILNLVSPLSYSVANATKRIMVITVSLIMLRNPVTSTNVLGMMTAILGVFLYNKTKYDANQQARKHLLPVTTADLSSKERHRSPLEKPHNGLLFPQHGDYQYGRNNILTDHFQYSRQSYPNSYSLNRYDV
Chain of proteins of HEK293T cells transiently overexpressing caspase-6 (Homo sapiens, UniProt Q96AG4) (Q96AG4 whole entry): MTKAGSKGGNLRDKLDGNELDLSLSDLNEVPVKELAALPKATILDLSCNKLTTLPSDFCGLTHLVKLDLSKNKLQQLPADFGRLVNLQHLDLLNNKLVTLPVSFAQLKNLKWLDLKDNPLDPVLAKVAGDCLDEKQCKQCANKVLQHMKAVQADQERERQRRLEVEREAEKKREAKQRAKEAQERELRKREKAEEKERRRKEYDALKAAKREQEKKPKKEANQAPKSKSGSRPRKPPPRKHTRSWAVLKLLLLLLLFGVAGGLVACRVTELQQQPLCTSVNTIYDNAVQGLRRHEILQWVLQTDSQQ

Consider `C#CCOc1ccc([C@@H]2C[C@@H](C(=O)Nc3ccc(OC(F)(F)F)cc3)CN(S(=O)(=O)C=C)C2)cc1` (relative stereo) [13-t], for which the enrich.exp.med in [1] is given as 0.01987; in [2], -1.278; in [3], -1.769; in test [4] it was 1.71; in [5] it was -1.532; in [6] (exp_ref Probe) it was 2.707. Further, the enrich.exp.med in test [7] was -0.4487; in test [8], 2.108; in test [9], 1.571; in test [10] it was -8.887; in test [11] (Probe, protein RPL15 P61313) it was -0.9576; in test [12], -0.2955. Moreover, the enrich.exp.med in test [13] (exp_ref Probe, analysis C6) is recorded as 1.948; in [14], 1.908; in [15], -0.5802; in test [16], 0.2022; in [17], 0.7561; in [18], -0.1094. Also, the enrich.exp.med.lin is recorded as 6.528 in test [6] (Expt Probe), 0.5149 in test [11] (protein RPL15 (P61313)) and 3.857 in test [13]. The enrich.exp.med.log2 in [6] (Expt Probe) is 2.707; in test [11] (protein RPL15 (P61313)), -0.9576; in test [13], 1.948.
